The source made the active and inactive calls. Rule as the data show it, for most assays here: actives have a measured IC50 and inactives only a lower limit.
What was measured:
Type in all cases: functional
[1] = target: T1, Replicative DNA helicase DnaB (Mycobacterium tuberculosis, UniProt P9WMR3); assay: DnaB intein splicing inhibitors, dose response, biochemical, cell-free fluorescence (AID 449749)
T1 sequence (P9WMR3 whole entry): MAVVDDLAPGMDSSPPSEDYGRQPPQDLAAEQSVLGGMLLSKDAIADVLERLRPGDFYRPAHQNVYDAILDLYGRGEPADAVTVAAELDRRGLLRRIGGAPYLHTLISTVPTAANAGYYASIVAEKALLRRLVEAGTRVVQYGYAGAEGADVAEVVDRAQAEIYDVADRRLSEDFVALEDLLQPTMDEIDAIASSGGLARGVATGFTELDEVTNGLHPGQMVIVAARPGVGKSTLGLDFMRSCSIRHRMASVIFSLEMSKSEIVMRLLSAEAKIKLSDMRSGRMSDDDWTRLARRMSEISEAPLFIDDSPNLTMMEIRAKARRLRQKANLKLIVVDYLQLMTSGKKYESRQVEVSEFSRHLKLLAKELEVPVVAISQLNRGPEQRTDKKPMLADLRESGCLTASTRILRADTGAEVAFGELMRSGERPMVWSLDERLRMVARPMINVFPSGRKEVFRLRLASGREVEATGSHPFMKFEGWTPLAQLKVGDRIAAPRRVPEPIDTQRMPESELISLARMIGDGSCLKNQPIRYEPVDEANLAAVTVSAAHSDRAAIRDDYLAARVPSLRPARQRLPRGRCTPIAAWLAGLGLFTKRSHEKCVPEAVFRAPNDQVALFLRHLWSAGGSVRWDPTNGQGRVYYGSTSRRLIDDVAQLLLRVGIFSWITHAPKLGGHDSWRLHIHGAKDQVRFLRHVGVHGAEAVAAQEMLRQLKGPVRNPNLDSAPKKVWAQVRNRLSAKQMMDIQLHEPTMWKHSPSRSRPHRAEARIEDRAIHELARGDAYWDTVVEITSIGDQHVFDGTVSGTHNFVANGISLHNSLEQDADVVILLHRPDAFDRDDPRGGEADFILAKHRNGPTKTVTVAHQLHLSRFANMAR

[2] = target: T2, Sentrin-specific protease 8 (Homo sapiens, UniProt Q96LD8); assay: SENP8 protease inhibitors, SAR follow-up, biochemical, luminescence (AID 504501)
T2 sequence (Q96LD8 whole entry): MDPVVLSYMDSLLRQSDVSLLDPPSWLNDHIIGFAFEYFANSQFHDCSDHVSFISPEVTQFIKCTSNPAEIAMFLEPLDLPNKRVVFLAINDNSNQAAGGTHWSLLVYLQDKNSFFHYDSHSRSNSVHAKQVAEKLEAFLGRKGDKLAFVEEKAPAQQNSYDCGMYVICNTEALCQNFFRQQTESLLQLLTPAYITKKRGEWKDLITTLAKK

[3] = target: T3, Caspase-3 (Homo sapiens, UniProt P42574); assay: SAR Analysis of small molecule inhibitors of Sentrin-specific proteases (SENPs) using a Caspase-3 Selectivity assay. [Related pubchem assays (depositor defined):AID2540, AID2599, AID434973, AID489001]
T3 sequence (P42574 whole entry): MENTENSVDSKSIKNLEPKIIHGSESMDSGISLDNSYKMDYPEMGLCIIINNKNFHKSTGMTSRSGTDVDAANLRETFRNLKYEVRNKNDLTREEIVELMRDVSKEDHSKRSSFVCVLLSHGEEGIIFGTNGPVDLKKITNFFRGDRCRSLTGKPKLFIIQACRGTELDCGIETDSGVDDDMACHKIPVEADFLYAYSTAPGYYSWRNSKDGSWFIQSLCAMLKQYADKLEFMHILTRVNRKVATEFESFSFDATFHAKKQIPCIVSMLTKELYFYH

[4] = target: T4, Sentrin-specific protease 6 (Homo sapiens, UniProt Q9GZR1); assay: SAR Analysis of small molecule inhibitors of Sentrin-specific protease 6 (SENP6) using a Luminescent assay. [Related pubchem assays (depositor defined):AID2582, AID2599]
T4 sequence (Q9GZR1 whole entry): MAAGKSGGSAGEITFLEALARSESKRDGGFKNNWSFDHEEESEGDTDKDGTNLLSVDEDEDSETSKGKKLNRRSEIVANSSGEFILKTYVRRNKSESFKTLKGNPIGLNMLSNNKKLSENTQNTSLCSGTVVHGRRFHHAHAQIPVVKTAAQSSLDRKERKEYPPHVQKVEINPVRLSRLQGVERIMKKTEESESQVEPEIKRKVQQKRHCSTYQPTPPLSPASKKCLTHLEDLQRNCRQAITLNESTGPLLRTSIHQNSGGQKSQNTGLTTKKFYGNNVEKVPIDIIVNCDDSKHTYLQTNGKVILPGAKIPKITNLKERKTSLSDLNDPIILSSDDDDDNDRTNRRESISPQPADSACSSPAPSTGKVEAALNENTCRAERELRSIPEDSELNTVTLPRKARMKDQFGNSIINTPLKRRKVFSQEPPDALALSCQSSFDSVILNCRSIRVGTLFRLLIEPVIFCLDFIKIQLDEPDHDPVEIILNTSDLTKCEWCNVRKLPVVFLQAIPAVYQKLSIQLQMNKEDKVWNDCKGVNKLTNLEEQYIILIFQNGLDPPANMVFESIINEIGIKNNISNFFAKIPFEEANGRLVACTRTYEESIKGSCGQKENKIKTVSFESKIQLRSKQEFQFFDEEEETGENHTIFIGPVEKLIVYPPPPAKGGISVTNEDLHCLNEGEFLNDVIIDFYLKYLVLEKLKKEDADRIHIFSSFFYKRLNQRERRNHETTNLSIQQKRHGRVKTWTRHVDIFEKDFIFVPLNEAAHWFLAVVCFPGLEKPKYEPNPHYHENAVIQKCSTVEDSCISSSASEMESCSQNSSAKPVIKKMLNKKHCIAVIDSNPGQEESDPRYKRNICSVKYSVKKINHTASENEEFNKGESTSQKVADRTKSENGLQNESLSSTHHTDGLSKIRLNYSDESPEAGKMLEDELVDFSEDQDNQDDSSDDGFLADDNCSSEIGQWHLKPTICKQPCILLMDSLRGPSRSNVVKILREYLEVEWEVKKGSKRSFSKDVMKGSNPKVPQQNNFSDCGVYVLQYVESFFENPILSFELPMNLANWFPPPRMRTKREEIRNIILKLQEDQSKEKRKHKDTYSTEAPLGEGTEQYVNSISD

O=C(NN=c1c(=O)c2ccccc2c1=O)c1ccccc1
active: AC50 [1] 3.42 µM | IC50 [2] 19.8 µM | IC50 [3] 51.8 µM | IC50 [4] 5.31 µM
